Results as given in patent US20250154138A1, “Small Molecule IL-17A Modulators” (BeiGene, Ltd., priority 2022, published 2025).

Tests used:
[1] = biological target: human IL-17A / human IL-17RA (Homo sapiens (Human), UniProt Q16552); assay: Human IL-17A biochemical assay (HTRF, blocking of IL-17A binding to IL-17RA); conditions: 0.4 nM IL-17A, 0.3 nM IL-17RA, max compound concentration 10 uM
Outline: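 HTRF competition: 0.4 nM recombinant human IL-17A pre-incubated 3 h at room temperature with compound (top 10 uM, 2.7-fold, 10 points) in HEPES pH 7.5 buffer, then 0.3 nM IL-17RA added for 1 h, then anti-6His-Tb/anti-human IgG-XL665 detection for 1 h.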

[2] = system: IL-17-induced GROα secretion from HT-29 cells; assay: GROα release assay in human colorectal adenocarcinoma epithelial cell (HT-29, ELISA); type: cell-based; conditions: Homo sapiens, HT-29, 48 h, 10 ng/mL IL-17A, highest concentration 10 μM, read-out: Cellular assay HT29 cell/CXCL1 IC50
Outline: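 HT-29 cells were exposed 48 h at 37°C to IL-17A (final 10 ng/mL) preincubated 15 min with compound (4-fold dilutions, top 10 μM). Secreted GROα was quantified by ELISA against a standard curve, and IC50 obtained by four-parameter fitting.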

human IL-17A / human IL-17RA, sequence (Q16552 24-155): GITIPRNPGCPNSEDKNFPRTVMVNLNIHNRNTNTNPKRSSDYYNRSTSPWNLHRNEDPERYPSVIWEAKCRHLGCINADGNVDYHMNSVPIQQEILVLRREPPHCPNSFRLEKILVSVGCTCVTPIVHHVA

Compound | IC50 [1] [nM] | IC50 [2] [nM]
Cc1nonc1C(=O)N[C@H](C(=O)Nc1ccc2c(c1)CC(N1C[C@@H](C(F)(F)F)NC1=O)C2)C1CCCCC1 (stereo partly drawn) [Example 213, N-((1S)-1-cyclohexyl-2-oxo-2-((2-((S)-2-oxo-4-(trifluoromethyl)imidazolidin-1-yl)-2,3-dihydro-1H-inden-5-yl)amino)ethyl)-4-methyl-1,2,5-oxadiazole-3-carboxamide] | 1760 | 4520
Cc1ccccc1NC(=O)C1(N2CC3(CC3)CNC2=O)Cc2ccc(NC(=O)[C@@H](NC(=O)c3nonc3C)C3CCC(F)(F)CC3)cc2C1 (stereo partly drawn) [Example 214, N-((1S)-1-(4,4-difluorocyclohexyl)-2-oxo-2-((2-(6-oxo-5,7-diazaspiro[2.5]octan-5-yl)-2-(o-tolylcarbamoyl)-2,3-dihydro-1H-inden-5-yl)amino)ethyl)-4-methyl-1,2,5-oxadiazole-3-carboxamide] | 37.3 | 102
Cc1nonc1C(=O)N[C@H](C(=O)Nc1ccc2c(c1)CC(C(=O)Nc1cncs1)(N1CC3(CC3)CNC1=O)C2)C1CCC(F)(F)CC1 (stereo partly drawn) [Example 215, N-((1S)-1-(4,4-difluorocyclohexyl)-2-oxo-2-((2-(6-oxo-5,7-diazaspiro[2.5]octan-5-yl)-2-(thiazol-5-ylcarbamoyl)-2,3-dihydro-1H-inden-5-yl)amino)ethyl)-4-methyl-1,2,5-oxadiazole-3-carboxamide] | 33.6 | 134
Cc1nonc1C(=O)N[C@H](C(=O)Nc1ccc2c(c1)CC(C(=O)Nc1cccc(F)c1)(N1CC3(CC3)CNC1=O)C2)C(C1CC1)C1CC1 (stereo partly drawn) [Example 216, N-((2S)-1,1-dicyclopropyl-3-((2-((3-fluorophenyl)carbamoyl)-2-(6-oxo-5,7-diazaspiro[2.5]octan-5-yl)-2,3-dihydro-1H-inden-5-yl)amino)-3-oxopropan-2-yl)-4-methyl-1,2,5-oxadiazole-3-carboxamide] | 23.3 | 58.9
Cn1nccc1C(=O)NC(C(=O)Nc1ccc2c(c1)CC(N1C[C@@H](C(F)(F)F)NC1=O)C2)C1CCc2cc(Cl)ccc2C1 (stereo partly drawn) [Example 217, N-(1-(6-chloro-1,2,3,4-tetrahydronaphthalen-2-yl)-2-oxo-2-((2-((S)-2-oxo-4-(trifluoromethyl)imidazolidin-1-yl)-2,3-dihydro-1H-inden-5-yl)amino)ethyl)-1-methyl-1H-pyrazole-5-carboxamide] | 62.5 | 394
Cc1nocc1C(=O)N[C@H](C(=O)Nc1ccc2c(c1)CC(N1C[C@@H](C(F)(F)F)NC1=O)C2)C(C1CC1)C1CC1 (stereo partly drawn) [Example 218, N-((2S)-1,1-dicyclopropyl-3-oxo-3-((2-((S)-2-oxo-4-(trifluoromethyl)imidazolidin-1-yl)-2,3-dihydro-1H-inden-5-yl)amino)propan-2-yl)-3-methylisoxazole-4-carboxamide] | 141 | 385
Cc1ccc(F)cc1NC(=O)C1(N2CC3(CC3)CNC2=O)Cc2ccc(NC(=O)[C@@H](NC(=O)c3nonc3C)C3CCC(F)(F)CC3)cc2C1 (stereo partly drawn) [Example 219, N-((1S)-1-(4,4-difluorocyclohexyl)-2-((2-((5-fluoro-2-methylphenyl)carbamoyl)-2-(6-oxo-5,7-diazaspiro[2.5]octan-5-yl)-2,3-dihydro-1H-inden-5-yl)amino)-2-oxoethyl)-4-methyl-1,2,5-oxadiazole-3-carboxamide] | 107 | 297
Cc1nonc1C(=O)N[C@H](C(=O)Nc1ccc2c(c1)CC(C(=O)Nc1cccc(Cl)c1)(N1CC3(CC3)CNC1=O)C2)C1CCC(F)(F)CC1 (stereo partly drawn) [Example 220, N-((1S)-2-((2-((3-chlorophenyl)carbamoyl)-2-(6-oxo-5,7-diazaspiro[2.5]octan-5-yl)-2,3-dihydro-1H-inden-5-yl)amino)-1-(4,4-difluorocyclohexyl)-2-oxoethyl)-4-methyl-1,2,5-oxadiazole-3-carboxamide] | 169 | 80.6
Cc1ccc(NC(=O)C2(N3CC4(CC4)CNC3=O)Cc3ccc(NC(=O)[C@@H](NC(=O)c4nonc4C)C4CCC(F)(F)CC4)cc3C2)cc1 (stereo partly drawn) [Example 221, N-((1S)-1-(4,4-difluorocyclohexyl)-2-oxo-2-((2-(6-oxo-5,7-diazaspiro[2.5]octan-5-yl)-2-(p-tolylcarbamoyl)-2,3-dihydro-1H-inden-5-yl)amino)ethyl)-4-methyl-1,2,5-oxadiazole-3-carboxamide] | 47.8 | 111
Cc1nonc1C(=O)N[C@H](C(=O)Nc1ccc2c(c1)CC(c1cn3ccccc3n1)(N1CC3(CC3)CNC1=O)C2)C(C1CC1)C1CC1 (stereo partly drawn) [Example 222, N-((2S)-1,1-dicyclopropyl-3-((2-(imidazo[1,2-a]pyridin-2-yl)-2-(6-oxo-5,7-diazaspiro[2.5]octan-5-yl)-2,3-dihydro-1H-inden-5-yl)amino)-3-oxopropan-2-yl)-4-methyl-1,2,5-oxadiazole-3-carboxamide] | 34.3 | 66.6
Cc1nonc1C(=O)N[C@H](C(=O)Nc1ccc2c(c1)CC(c1cn3ccccc3n1)(N1CC3(CC3)CNC1=O)C2)C1CCC(F)(F)CC1 (stereo partly drawn) [Example 223, N-((1S)-1-(4,4-difluorocyclohexyl)-2-((2-(imidazo[1,2-a]pyridin-2-yl)-2-(6-oxo-5,7-diazaspiro[2.5]octan-5-yl)-2,3-dihydro-1H-inden-5-yl)amino)-2-oxoethyl)-4-methyl-1,2,5-oxadiazole-3-carboxamide] | 118 | 606
Cn1nccc1C(=O)NC(C(=O)Nc1ccc2c(c1)CC(N1C[C@@H](C(F)(F)F)NC1=O)C2)C1Cc2ccc(Cl)cc2C2(CC2)C1 (stereo partly drawn) [Example 224, N-(1-(7′-chloro-3′,4′-dihydro-2′H-spiro[cyclopropane-1,1′-naphthalen]-3′-yl)-2-oxo-2-((2-((S)-2-oxo-4-(trifluoromethyl)imidazolidin-1-yl)-2,3-dihydro-1H-inden-5-yl)amino)ethyl)-1-methyl-1H-pyrazole-5-carboxamide] | 47.8 | 85.1
COCC1(N2CC(C(F)(F)F)NC2=O)Cc2ccc(NC(=O)[C@@H](NC(=O)c3nonc3C)C(C3CC3)C3CC3)cc2C1 (stereo partly drawn) [Example 225, N-((2S)-1,1-dicyclopropyl-3-((2-(methoxymethyl)-2-(2-oxo-4-(trifluoromethyl)imidazolidin-1-yl)-2,3-dihydro-1H-inden-5-yl)amino)-3-oxopropan-2-yl)-4-methyl-1,2,5-oxadiazole-3-carboxamide] | 1270 | 2320
Cc1nonc1C(=O)N[C@H](C(=O)Nc1ccc2c(c1)CC(C#N)(N1CC3(CC3)CNC1=O)C2)C(C1CC1)C1CC1 (stereo partly drawn) [Example 226, N-((2S)-1-((2-cyano-2-(6-oxo-5,7-diazaspiro[2.5]octan-5-yl)-2,3-dihydro-1H-inden-5-yl)amino)-3,3-dicyclopropyl-1-oxopropan-2-yl)-4-methyl-1,2,5-oxadiazole-3-carboxamide] | 50.4 | 225
Cc1nonc1C(=O)NC(C(=O)Nc1ccc2c(c1)CC(N1C[C@@H](C(F)(F)F)NC1=O)C2)C1Cc2ccc(Cl)cc2C2(CC2)C1 (stereo partly drawn) [Example 227, N-(1-(7′-chloro-3′,4′-dihydro-2′H-spiro[cyclopropane-1,1′-naphthalen]-3′-yl)-2-oxo-2-((2-((S)-2-oxo-4-(trifluoromethyl)imidazolidin-1-yl)-2,3-dihydro-1H-inden-5-yl)amino)ethyl)-4-methyl-1,2,5-oxadiazole-3-carboxamide] | 112 | 168
